Measured values as given in article PMC3664191 (Bioorganic & medicinal chemistry letters, 2013).
pIC50: −log10 of the molar value. One block for each molecule: values may come before it.

Assays:
CSNK1E = CSNK1E (Homo sapiens, UniProt P49674); assay: DiscoverRX KINOMEscan binding; details: read-out: % control CSNK1E
DRAK = assay: DiscoverRX KINOMEscan binding; details: 10 μM
[1] = phosphate buffered saline (PBS) and assay media
[2] = target: dopamine transporter (DAT) (Homo sapiens, UniProt Q01959); assay: Ricerca LeadProfiling off-target screen; format: binding; details: read-out: inhibition or stimulation, dopamine transporter (DAT)
adrenergic α2A = target: T1, adrenergic α2A (Homo sapiens, UniProt P08913); assay: Ricerca LeadProfiling off-target screen; details: read-out: inhibition or stimulation, adrenergic α2A
T1 sequence (P08913 1-465): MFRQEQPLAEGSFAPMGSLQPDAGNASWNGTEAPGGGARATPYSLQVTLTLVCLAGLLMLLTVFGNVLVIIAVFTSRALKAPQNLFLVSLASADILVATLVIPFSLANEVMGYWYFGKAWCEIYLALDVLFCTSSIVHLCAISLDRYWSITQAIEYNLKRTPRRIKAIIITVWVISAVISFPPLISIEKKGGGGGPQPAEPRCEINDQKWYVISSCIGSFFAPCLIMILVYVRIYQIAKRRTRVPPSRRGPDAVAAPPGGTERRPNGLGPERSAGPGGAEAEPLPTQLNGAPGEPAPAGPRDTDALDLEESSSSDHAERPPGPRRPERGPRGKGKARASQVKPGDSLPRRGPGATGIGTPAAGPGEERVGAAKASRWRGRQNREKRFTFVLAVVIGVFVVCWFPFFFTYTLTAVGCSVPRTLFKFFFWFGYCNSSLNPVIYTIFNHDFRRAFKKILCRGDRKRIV

[3] = target: norepinephrine transporter (NET) (Homo sapiens, UniProt P23975); assay: Ricerca LeadProfiling off-target screen; format: binding; details: read-out: inhibition or stimulation, norepinephrine transporter (NET)
Clk4 = Clk4 (Homo sapiens, UniProt Q9HAZ1); assay: Kinase Glo; format: biochemical; details: matrix library, Kinase Glo (Promega) assay, Figure 4
Clk3 = Clk3 (Homo sapiens, UniProt P49761); details: cited from earlier work
Chain of Clk3 (P49761 whole entry): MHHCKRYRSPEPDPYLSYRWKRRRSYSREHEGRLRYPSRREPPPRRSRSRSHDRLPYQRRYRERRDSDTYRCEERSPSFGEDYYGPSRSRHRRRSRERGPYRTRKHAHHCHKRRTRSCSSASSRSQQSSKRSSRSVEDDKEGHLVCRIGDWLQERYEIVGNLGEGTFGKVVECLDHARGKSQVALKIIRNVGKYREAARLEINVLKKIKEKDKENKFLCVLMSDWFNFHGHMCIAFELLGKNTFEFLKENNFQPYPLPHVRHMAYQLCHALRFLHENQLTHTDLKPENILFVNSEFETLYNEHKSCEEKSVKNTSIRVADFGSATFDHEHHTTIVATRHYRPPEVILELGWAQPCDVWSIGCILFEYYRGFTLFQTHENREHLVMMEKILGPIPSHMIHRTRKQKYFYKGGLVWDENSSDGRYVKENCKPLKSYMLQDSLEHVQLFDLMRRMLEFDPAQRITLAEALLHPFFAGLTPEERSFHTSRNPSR

Chain of Clk4 (Q9HAZ1 whole entry, species assumed): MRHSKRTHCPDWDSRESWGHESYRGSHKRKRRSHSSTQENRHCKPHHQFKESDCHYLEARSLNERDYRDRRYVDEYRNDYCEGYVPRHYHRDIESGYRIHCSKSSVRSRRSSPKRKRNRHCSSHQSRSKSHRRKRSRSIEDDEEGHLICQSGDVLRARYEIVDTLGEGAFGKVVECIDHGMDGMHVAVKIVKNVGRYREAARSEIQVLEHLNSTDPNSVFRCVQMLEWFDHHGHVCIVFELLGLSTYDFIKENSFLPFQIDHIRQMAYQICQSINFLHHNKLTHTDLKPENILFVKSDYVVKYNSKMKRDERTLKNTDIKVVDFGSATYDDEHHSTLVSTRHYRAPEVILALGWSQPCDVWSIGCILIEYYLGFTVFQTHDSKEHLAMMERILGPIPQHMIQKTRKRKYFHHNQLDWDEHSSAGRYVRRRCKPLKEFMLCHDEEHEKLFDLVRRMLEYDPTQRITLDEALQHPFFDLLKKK
Chain of CSNK1E (P49674 whole entry): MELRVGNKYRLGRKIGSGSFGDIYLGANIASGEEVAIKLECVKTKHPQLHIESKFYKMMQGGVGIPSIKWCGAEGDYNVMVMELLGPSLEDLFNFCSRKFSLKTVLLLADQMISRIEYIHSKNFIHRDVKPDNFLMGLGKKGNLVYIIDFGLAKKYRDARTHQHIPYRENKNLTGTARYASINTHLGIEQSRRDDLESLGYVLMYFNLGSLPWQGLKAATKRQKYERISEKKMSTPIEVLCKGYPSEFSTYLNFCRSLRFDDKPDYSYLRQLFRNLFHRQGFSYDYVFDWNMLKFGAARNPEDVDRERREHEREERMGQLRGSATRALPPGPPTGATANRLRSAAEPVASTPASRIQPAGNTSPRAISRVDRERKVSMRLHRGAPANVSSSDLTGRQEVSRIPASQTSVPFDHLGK
Chain of norepinephrine transporter (NET) (P23975 whole entry): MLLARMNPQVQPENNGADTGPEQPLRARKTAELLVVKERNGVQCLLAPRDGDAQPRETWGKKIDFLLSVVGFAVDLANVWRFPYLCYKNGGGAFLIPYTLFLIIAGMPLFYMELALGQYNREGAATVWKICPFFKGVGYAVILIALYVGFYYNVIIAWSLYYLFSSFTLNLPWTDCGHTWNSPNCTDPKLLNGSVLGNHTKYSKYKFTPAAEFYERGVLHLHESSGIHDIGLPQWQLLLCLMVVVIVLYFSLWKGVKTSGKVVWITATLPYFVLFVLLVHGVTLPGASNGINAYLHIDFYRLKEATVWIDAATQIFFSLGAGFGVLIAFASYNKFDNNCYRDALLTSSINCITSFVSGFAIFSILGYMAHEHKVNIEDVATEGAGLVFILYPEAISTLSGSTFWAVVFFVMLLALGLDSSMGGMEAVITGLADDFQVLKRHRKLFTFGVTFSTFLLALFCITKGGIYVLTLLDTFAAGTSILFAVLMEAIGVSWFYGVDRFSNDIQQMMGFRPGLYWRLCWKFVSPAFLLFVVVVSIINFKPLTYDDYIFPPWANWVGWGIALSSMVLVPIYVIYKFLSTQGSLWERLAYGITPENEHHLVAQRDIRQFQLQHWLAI
Chain of dopamine transporter (DAT) (Q01959 whole entry): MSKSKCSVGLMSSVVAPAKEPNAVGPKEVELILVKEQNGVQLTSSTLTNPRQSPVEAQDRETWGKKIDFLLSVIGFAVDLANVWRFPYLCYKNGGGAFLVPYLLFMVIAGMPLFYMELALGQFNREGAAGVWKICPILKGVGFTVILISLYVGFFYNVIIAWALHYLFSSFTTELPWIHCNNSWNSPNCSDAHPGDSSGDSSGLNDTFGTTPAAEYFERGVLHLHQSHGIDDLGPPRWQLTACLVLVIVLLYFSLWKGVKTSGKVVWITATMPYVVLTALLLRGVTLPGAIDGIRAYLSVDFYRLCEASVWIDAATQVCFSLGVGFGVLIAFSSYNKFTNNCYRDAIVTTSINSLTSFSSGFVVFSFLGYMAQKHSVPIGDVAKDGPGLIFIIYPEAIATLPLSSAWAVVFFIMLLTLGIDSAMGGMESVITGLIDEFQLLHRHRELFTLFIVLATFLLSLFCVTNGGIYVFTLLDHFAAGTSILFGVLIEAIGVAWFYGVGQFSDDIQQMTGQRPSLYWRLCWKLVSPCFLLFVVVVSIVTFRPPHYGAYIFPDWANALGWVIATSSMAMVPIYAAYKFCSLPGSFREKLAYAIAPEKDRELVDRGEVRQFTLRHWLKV

- remaining binding at 10 µM (CSNK1E): < 10%
- % control DRAK (DRAK): < 10 % control
SMILES: Clc1ccc(CNc2nccc(-c3ccc4[nH]ncc4c3)n2)cc1Cl [Compound 22]

- activity against Clk4 (Clk4): active
SMILES: Clc1ccc(CNc2ccnc(-c3ccc4c(c3)OCO4)n2)cc1Cl [Compound A2]

- activity against Clk4 (Clk4): active
SMILES: COc1cccc(-c2nccc(NCc3ccc(Cl)c(Cl)c3)n2)c1 [Compound C2]

- activity against Clk4 (Clk4): active
SMILES: COc1ccc(-c2nccc(NCc3ccc(Cl)c(Cl)c3)n2)cc1 [Compound G2]

- activity against Clk4 (Clk4): active
SMILES: COc1ccc(-c2nccc(NCc3ccc(Cl)cc3)n2)cc1 [Compound G4]

The remaining lines, values behind:

SMILES: Clc1cc(Cl)cc(CNc2ncncc2-c2ccc3c(c2)OCO3)c1 [Compound 35]
- solubility [1]: limited
- inhibition at 10 µM [2]: > 50%
- plasma stability (Plasma stability, human): stable
- inhibition at 10 µM (adrenergic α2A): > 50%
- cell permeability (Cell permeability): moderately cell permeable
- inhibition at 10 µM [3]: > 50%
- plasma stability (Plasma stability, mouse): stable

SMILES: Clc1ccc(CNc2ccnc(-c3ccc4c(c3)OCO4)n2)cc1 [Compound A4]
- activity against Clk4 (Clk4): active

SMILES: O=C1NC(Nc2ccccc2)=N/C1=C\c1ccc2c(c1)OCO2 [Leucettine L41]
- pIC50 (Clk3; read-out: Clk3 IC50): 5.35

SMILES: CCN1/C(=C/C(C)=O)Sc2ccc(OC)cc21 [TG003]
- Clk3 activity (Clk3): inactive
